For orientation: Ki means a measure of affinity in units of concentration, obtained from inhibition or displacement.

For experiment [1], the target named is T1, HCV genotype 1b (BK) NS3 modified enzyme with a R155K mutation (Hepatitis C virus genotype 1b, UniProt P26663, R1181K).
T1 construct: HCV genotype 1b (BK) NS3 modified enzyme
Nature of the experiment: HCV NS3 protease time-resolved fluorescence (TRF) assay, genotype 1b R155K. It counts as biochemical. The settings on record: Ki 1b R155K, genotype 1b (BK) NS3 R155K; single value. The procedure, abridged: (§1)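 IC50 values derive from 4-parameter fitting of TRF signal after a 6 h room-temperature cleavage of 25 nM peptide substrate by NS3/NS4A that had been pre-incubated 10 min with compound.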

The target in experiment [2] is HCV NS3 protease genotype 3a (3A-1) (Hepatitis C virus genotype 3a, UniProt Q81258). Description: HCV NS3 protease time-resolved fluorescence (TRF) assay, genotype 3a. It is filed as biochemical. The settings on record: Ki 3a. Summed up: as §1

`C=C[C@@H]1C[C@]1(NC(=O)[C@@H]1C[C@@H]2CN1C(=O)[C@H](C(C)(C)C)NC(=O)O[C@@H]1C[C@H]1CCCCCc1c(nc3ccccc3c1OCCCN1CC3CCC1C3)O2)C(=O)NS(=O)(=O)C1(C)CC1` [Example 196, (1aR,5S,8S,10R,22aR)-17-[3-(2-azabicyclo[2.2.1]hept-2-yl)propxy]-5-tert-butyl-N-[(1R,2S)-2-ethenyl-1-{[(1-methylcyclopropyl)sulfonyl]carbamoyl}cyclopropyl]-3,6-dioxo-1,1a, 3,4,5,7,9,10,18,19,20,21,22,22a-tetradecahydro-8H-7,10-methanocyclopropa[18,19][1,10,3,6] dioxadiazacyclononadecino[11,12-b] quinoline-8-carboxamide]: the Ki in experiment [1] was 0.1 nM; in experiment [2] it was 0.85 nM.
The matching figures for `C=C[C@@H]1C[C@]1(NC(=O)[C@@H]1C[C@@H]2CN1C(=O)[C@H](C(C)(C)C)NC(=O)O[C@@H]1C[C@H]1CCCCCc1c(nc3ccccc3c1OCCCNCCN1CCCC1=O)O2)C(=O)NS(=O)(=O)C1(C)CC1` [Example 197, (1aR,5S,8S,10R,22aR)-5-tert-butyl-N-[(1R,2S)-2-ethenyl-1-{[(1-methylcyclopropyl)sulfonyl]carbamoyl}cyclopropyl]-3,6-dioxo-17-(3-{[2-(2-oxopyrrolidin-1-yl)ethyl]amino}propoxy)-1,1a,3,4,5,7,9,10, 18,19,20,21,22,22a-tetra decahydro-8H-7,10-methanocyclopropa[18,19][1,10,3,6] dioxdiazacyclononadecino[11,12-b] quinoline-8-carboxamide]: 0.027 nM and 0.31 nM.
The corresponding values for `C=C[C@@H]1C[C@]1(NC(=O)[C@@H]1C[C@@H]2CN1C(=O)[C@H](C(C)(C)C)NC(=O)O[C@@H]1C[C@H]1CCCCCc1c(nc3ccccc3c1OCCCNCCCCc1ccccc1)O2)C(=O)NS(=O)(=O)C1(C)CC1` [Example 198, (1aR,5S,8S,10R,22aR)-5-tert-butyl-N-[(1R,2S)-2-ethenyl-1-{[(1-methylcyclopropyl)sulfonyl]carbamoyl}cylcopropoyl]-3,6-dioxo-17-{3-[(4-phenylbutyl)amino]propoxy}-1,1a,3,4,5,6,9,10,18,19,20,21,22,22a-tetra decahydro-8H-7,10-methanocyclopropa[18,19][1,10,3,6] dioxadiazacyclononadecino[11,12-b] quinoline-8-carboxamide] are 0.05 nM and 0.77 nM.
The matching figures for `C=C[C@@H]1C[C@]1(NC(=O)[C@@H]1C[C@@H]2CN1C(=O)[C@H](C(C)(C)C)NC(=O)O[C@@H]1C[C@H]1CCCCCc1c(nc3ccccc3c1OCCCN(C)Cc1n[nH]c(=O)[nH]1)O2)C(=O)NS(=O)(=O)C1(C)CC1` [Example 199, (1aR,5S,8S,10R,22aR)-5-tert-butyl-N-[(1R,2S)-2-ethenyl-1-{[(1-methylcyclopropyl)sulfonyl]carbamoyl}cyclopropyl]-17-(3-{methyl[(5-oxo-4,5-dihydro-1H-1,2,4-triazol-3-yl)methyl]amino}propoxy)-3,6-dioxo-1,1a,3,4,5,6,9,10,18,19,20,21, 22,22a-tetradecahydro-8H-7,10-methanocyclopropa[18,19][1,10,3,6] dioxadiazacyclononadecino[11,12-b] quinoline-8-carboxamide]: 0.057 nM and 0.74 nM.
As to `C=C[C@@H]1C[C@]1(NC(=O)[C@@H]1C[C@@H]2CN1C(=O)[C@H](C(C)(C)C)NC(=O)O[C@@H]1C[C@H]1CCCCCc1c(nc3ccccc3c1OCCCN(C)Cc1ncc[nH]1)O2)C(=O)NS(=O)(=O)C1(C)CC1` [Example 200, (1aR,5S,8S,10R,22aR)-5-tert-butyl-N-[(1R,2S)-2-ethenyl-1-{[(1-methylcyclopropyl)sulfonyl]carbamoyl}cylcopropyl]-17-{3-[(1H-imidazol-2-ylmethyl)(methyl)amino]propoxy}-3,6-dioxo-1,1a,3,4,5,6,9,10,18, 19,20,21,22,22a-tetradecahydro-8H-7,10-methanocyclopropa[18,19][1,10,3,6] dioxadiazacyclononadecino[11,12-b] quinoline-8-carboxamide], the results for the Ki in experiment [1] and in experiment [2] were 0.074 nM and 0.96 nM, respectively.
